Results published in US9738639B2, “Pyrroloquinoline quinone lithium salt crystal and preparation method and application thereof” (SHANGHAI RI XIN BIOTECHNOLOGY CO., LTD., priority 2013, dated 2017).

Tests used:
APP/PS1 transgenic mice = assay: Morris water maze probe test in APP/PS1 transgenic mice; format: in vivo; conditions: for Adjusted average distance of approaching to platform / Swimming path, I quadrant occupancy of platform / first time of crossing platform / time spent of IV quadrant / time, I quadrant occupancy of platform / times of crossing platform: probe test on 5th day, n = 10
Method: 1. […] 2. APP/PS1 transgenic mice (Model Animal Research Center of Nanjing University, weights of mice are from 30 g to 40 g, male, totally 60 mice). Sixty mice are randomized to six groups (group 2 to group 7) with ten mice for each group. […] group: 0.15 mg/mL […] solution is obtained by grinding one tablet (5 mg) of […] into powder, followed by dissolved in 0.5% CMC (carboxymethylcellulose). Morris water maze (Experimental video analysis system of Morris water maze, JLBehv-MWMG, Shanghai Jiliang Technology Co., Ltd) Group 1 and group 2 are daily administrated by normal saline and group 3 to group 7 are daily administrated by drug solutions prepared above, with the dosage of 1 mL/100 g/day for continuous one month. From the fifth week, mice are training in Morris water maze, 30 minutes after drug administration. The training session lasts for 4 days. The probe test performed on the 5th day. The Morris water maze statistics software is used to automatically record and analyze the swimming trace in the quadrant, time spent and path in target or opposite quadrant occupancy and times of crossing platform. The data is indicated as average±standard deviation (x±SD). The analysis of variance for a single factor is used for data difference statistics. Difference between groups is determined by P<0.05.

[1] = Hygroscopicity by dynamic vapor sorption (DVS) analysis; format: physicochemical; conditions: for hygroscopicity: DVS
Method: Dynamic Vapor Sorption (DVS) curves of the polymorphs are measured on SMS DVS Intrinsic at 0-95% RH and 25° C.
The compound stably exists as a nonahydrate by dynamic vapor sorption analysis. It forms monohydrate under the scope of relative humidity (RH) from 20% to 50%. It forms dihydrate under the scope of relative humidity (RH) from 70% to 100%. It could forms polyhydrate with further increased relative humidity (RH).
Under the scope of relative humidity (RH) from 5% to 95%, the hygroscopicity of the intermediate A of pyrroloquinoline quinine lithium salt and the crystalline form B of pyrroloquinoline quinine lithium salt from example 1 is measured by dynamic vapor sorption analysis. […] The crystalline solid is not good. The hygroscopicity of the crystalline form B of pyrroloquinoline quinine lithium salt is 8.4% and 13.9% under the relative humidity (RH) of 65% and 80%, respectively. […] The crystalline solid is not good.

[2] = tested on: glycogen synthase kinase-3 (GSK-3); conditions: background statement, no data; cited from earlier work
[3] = 0.375 mg/kg daily for one month

## O=C([O-])c1cc(C(=O)[O-])c2c(n1)C(=O)C(=O)c1cc(C(=O)[O-])[nH]c1-2.[Li+].[Li+].[Li+] [PQQ-Li, trilithium derivative of pyrroloquinoline quinine]
APP/PS1 transgenic mice; [3]
  Adjusted average distance of approaching to platform: 762.6 mm
  Swimming path, I quadrant occupancy of platform: 961.6 mm
  first time of crossing platform: 44.9 s
  time spent of IV quadrant: 12.4 s
  time, I quadrant occupancy of platform: 2.8 s
  times of crossing platform: 0.8
APP/PS1 transgenic mice; 0.75 mg/kg daily for one month
  Adjusted average distance of approaching to platform: 674.9 mm
  Swimming path, I quadrant occupancy of platform: 2029.9 mm
  first time of crossing platform: 31.3 s
  time spent of IV quadrant: 15.8 s
  time, I quadrant occupancy of platform: 6.4 s
  times of crossing platform: 1.6
APP/PS1 transgenic mice; 1.5 mg/kg daily for one month
  Adjusted average distance of approaching to platform: 605.6 mm
  Swimming path, I quadrant occupancy of platform: 2653.3 mm
  first time of crossing platform: 22.7 s
  time spent of IV quadrant: 17.7 s
  time, I quadrant occupancy of platform: 8.9 s
  times of crossing platform: 2.2
APP/PS1 transgenic mice; 3 mg/kg daily for one month
  Adjusted average distance of approaching to platform: 572.5 mm
  Swimming path, I quadrant occupancy of platform: 2636.1 mm
  first time of crossing platform: 21.8 s
  time spent of IV quadrant: 19.5 s
  time, I quadrant occupancy of platform: 9.2 s
  times of crossing platform: 2.3
APP/PS1 transgenic mice; APP/PS1 transgenic mice, 0.375-3 mg/kg
  dose dependence of effects in Morris water maze test: good dose-dependent effects
APP/PS1 transgenic mice; APP/PS1 transgenic mice, Morris water maze test
  effect on spatial memory and cognitive impairment: significantly improved spatial memory and cognitive impairment
[1]; dynamic vapor sorption analysis
  hydrate form in which the compound stably exists: nonahydrate
[1]; listed as crystalline form B of pyrroloquinoline quinine lithium salt
  hygroscopicity variety under the normal moist environment for storage: 5-10%
[1]; relative humidity (RH) from 20% to 50%
  hydrate form: monohydrate
[1]; relative humidity (RH) from 70% to 100%
  hydrate form: dihydrate
[1]; relative humidity (RH) of 65%, listed as crystalline form B of pyrroloquinoline quinine lithium salt
  hygroscopicity: 8.4%
[1]; relative humidity (RH) of 80%, listed as crystalline form B of pyrroloquinoline quinine lithium salt
  hygroscopicity: 13.9%

## COc1cc2c(cc1OC)C(=O)C(CC1CCN(Cc3ccccc3)CC1)C2 (stereo not shown) [Aricept, reference compound]
APP/PS1 transgenic mice; 1.5 mg/kg daily for one month
  Adjusted average distance of approaching to platform: 582.7 mm
  Swimming path, I quadrant occupancy of platform: 2730.8 mm
  first time of crossing platform: 30.7 s
  time spent of IV quadrant: 21.7 s
  time, I quadrant occupancy of platform: 9.3 s
  times of crossing platform: 1.6

## O=C([O-])c1cc(C(=O)[O-])c2c(n1)C(=O)C(=O)c1cc(C(=O)[O-])[nH]c1-2.[Li+].[Li+].[Li+] [Pyrroloquinoline quinine lithium salt, trilithium derivative of pyrroloquinoline quinine]
[2]
  effect on glycogen synthase kinase-3 activities (GSK-3): suppress the glycogen synthase kinase-3 activities

## O=C([O-])c1cc(C(=O)[O-])c2c(n1)C(=O)C(=O)c1cc(C(=O)[O-])[nH]c1-2.[Li+].[Li+].[Li+] [trilithium derivative of pyrroloquinoline quinine, reference compound]
[1]; after the hygroscopicity comparison
  crystalline solid (assessment in words): not good
[1]
  hygroscopicity variety under the normal moist environment for storage: 5-25%
[1]; relative humidity (RH) of 65%
  hygroscopicity: 25.3%
[1]; relative humidity (RH) of 80%
  hygroscopicity: 32.6%
